In patent US20220119493A1, “IL-7R-ALPHA BINDING COMPOUNDS” (MEDIKINE, INC., priority 2020, published 2022) one finds IC50 and EC50 data, which are given here for five compounds.

The target in assay [1] is T1, IL-7Rα (Homo sapiens, UniProt P16871).
T1 construct: Fc; purchased ACRObiosystems, Inc. ILB-H5258
Put plainly: Competitive binding ELISA bn407:NA-HRP. Particulars: bn407:NA-HRP 10 nMf; SEQ ID NOS: 520-534 with two glycines (-GG-) on the carboxyl terminus. For orientation: An ELISA detects its analyte on a solid surface through an enzyme-linked reagent.

For assay [2], the target named is T2, IL-7Rα subunit (Homo sapiens, UniProt P16871).
T2 construct: Fc; purchased ACRObiosystems, Inc. ILB-H5258
Put plainly: Phage ELISA competition assay. The note with it: read-out: IC50, binding to the unique binding site on the IL-7Rα subunit.

For assay [3], the system named is CD4 and CD8 T-cells. Put plainly: Ki-67 proliferation assay in CD4 and CD8 T-cells. Format: cell-based. Particulars: human PBMCs, 3 days; hIL-7 comparator.

One may read the pIC50 as the negative decadic logarithm of the IC50, by convention in mol/L. The term pEC50 denotes the EC50 on a negative log10 scale, so that one unit is a factor of ten.

pEC50, pIC50: −log10 of the molar value. Where only a bound is given, the exact number is not on record here.

T2 sequence (P16871 21-236): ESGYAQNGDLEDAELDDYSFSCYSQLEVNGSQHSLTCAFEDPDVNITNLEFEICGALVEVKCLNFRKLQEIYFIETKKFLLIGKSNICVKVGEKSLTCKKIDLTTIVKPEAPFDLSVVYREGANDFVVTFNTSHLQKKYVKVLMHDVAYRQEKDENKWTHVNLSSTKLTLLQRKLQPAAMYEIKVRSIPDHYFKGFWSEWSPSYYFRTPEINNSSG
T1 sequence (P16871 21-236): as above

`CC[C@H](C)[C@H](NC(=O)[C@H](CCCNC(=N)N)NC(=O)[C@H](Cc1c[nH]cn1)NC(=O)[C@@H](N)C(C)C)C(=O)N1CCC[C@H]1C(=O)N[C@@H](Cc1c[nH]c2ccccc12)C(=O)N[C@H]1CSSC[C@@H](C(=O)N[C@@H](C)C(=O)N[C@@H](Cc2c[nH]c3ccccc23)C(=O)N[C@@H](CC(C)C)C(=O)N[C@@H](CCCNC(=N)N)C(=O)N[C@@H](CCC(N)=O)C(=O)N[C@@H](CCSC)C(=O)NCC(=O)NCC(=O)O)NC(=O)[C@H](CCC(N)=O)NC(=O)[C@H](CC(C)C)NC(=O)CNC(=O)CNC(=O)[C@@H]2CCCN2C(=O)[C@H](CC(=O)O)NC(=O)[C@H](CC(C)C)NC(=O)[C@H]([C@@H](C)O)NC1=O` [SEQ ID NO: 554, VHRIPWCTLDPGGLQCAWLRQMGG] showed a pIC50 in assay [1] of 6.42.

Regarding `CSCC[C@H](NC(=O)[C@@H](N)Cc1ccc(O)cc1)C(=O)N[C@@H](C)C(=O)N[C@H]1CSSC[C@@H](C(=O)N[C@@H](CCCNC(=N)N)C(=O)N[C@@H](CC(C)C)C(=O)N[C@@H](CO)C(=O)O)NC(=O)[C@H](CC(C)C)NC(=O)[C@H](CO)NC(=O)[C@H](CC(C)C)NC(=O)CNC(=O)[C@H](CO)NC(=O)[C@H](CO)NC1=O` [compound 104], in assay [2], the pIC50 was above 5.00.

`CC[C@H](C)[C@H](NC(=O)[C@@H]1CSSC[C@H](NC(=O)[C@@H](N)CCC(N)=O)C(=O)N[C@@H](C(C)C)C(=O)N[C@@H](Cc2c[nH]cn2)C(=O)N[C@@H](Cc2c[nH]c3ccccc23)C(=O)N[C@@H](CC(=O)O)C(=O)N[C@@H](CC(C)C)C(=O)N[C@@H](CC(=O)O)C(=O)N[C@@H]([C@@H](C)O)C(=O)N[C@@H](CC(C)C)C(=O)N[C@@H](Cc2ccccc2)C(=O)NCC(=O)N1)C(=O)N[C@@H](CCCNC(=N)N)C(=O)N[C@@H](CCC(=O)O)C(=O)N[C@@H](CCC(N)=O)C(=O)N[C@@H](CC(C)C)C(=O)N[C@@H](CCC(=O)O)C(=O)N[C@@H](CC(C)C)C(=O)O` [compound 146]: the pIC50 in assay [2] was above 5.00.

Turning to `CC(C)C[C@@H]1NC(=O)[C@H](CO)NC(=O)CNC(=O)[C@@H]2CCCN2C(=O)[C@H](CC(=O)O)NC(=O)[C@H](CC(C)C)NC(=O)[C@H]([C@@H](C)O)NC(=O)[C@@H](NC(=O)[C@H](Cc2c[nH]c3ccccc23)NC(=O)[C@@H]2CCCN2C(=O)[C@@H](NC(=O)CNC(=O)CN)C(C)C)CSSC[C@@H](C(=O)N[C@@H](C)C(=O)N[C@@H](Cc2c[nH]c3ccccc23)C(=O)N[C@@H](Cc2ccccc2)C(=O)O)NC(=O)[C@H](CCC(N)=O)NC1=O` [compound 458], in assay [2], the pIC50 is above 5.00.

“hIL-7: human interleukin-7, the natural cytokine, comparator in the functional assays” had a negative-log EC50 (pEC50) in assay [3] of around 9.00.
